# According to paper PMC6421297, “Novel Mouse Tauopathy Model for Repetitive Mild Traumatic Brain Injury: Evaluation of Long-Term Effects on Cognition and Biomarker Levels After Therapeutic Inhibition of Tau Phosphorylation” (Frontiers in Neurology, 2019):
# Experiments:
# [1] = test system: tau phosphorylation at Thr231 and Ser202 in SH-SY5Y-(P301L) cells; type: cell-based; conditions: 6 h
# Experimental: (§1) SH-SY5Y-P301L cells (gift from Prof. Fred Van Leuven, Department of Human Genetics, KU Leuven, Belgium) were cultured Dulbecco's Modified Eagle Medium (DMEM):Nutrient Mixture F-12 (DMEM/F-12, Gibco, c/o Invitrogen, Saint Aubin, France) containing 1% Penicillin-Streptomycin mixture (Gibco) and 10% fetal bovine serum (FBS, Gibco) in a humidified, 5% CO2 incubator at 37°C. Cells were split routinely once a week. Cells were seeded at a density of 1.5 x 10^6 cells/well in P60 well plates with 4 ml medium/well and exposed for 6 h to a range of ros concentrations (Figures 2–4) or to a few concentrations of various kinase inhibitors with different selectivities (Figure 3). At the end of the incubation cells were harvested for Western blotting. Cells were scraped in cold phosphate-buffered saline, centrifuged at 10,000 x g for 5 min at 4°C, and pellets were snap-frozen in liquid nitrogen. Experiments were repeated three or four times.
# (§2) For Western blot analysis, cell pellets were lysed in homogenization buffer (25 mM MOPS, 15 mM EGTA, 15 mM MgCl2, 60 mM β-glycerophosphate, 15 mM p-nitrophenylphosphate, 2 mM dithiothreitol (DTT), 1 mM Na3VO4, 1 mM NaF, 1 mM disodium phenylphosphate, 1x protease inhibitor cocktail, 0.2% Nonidet P-40 substitute). Protein extracts were mixed (1:1 v/v) with sample buffer (2 × NuPAGE LDS sample buffer, 200 mM DTT) and 20 μg of total protein was loaded on NuPAGE 4–12% Bis-Tris protein gels. Electrophoresis was carried out at 70 V in MOPS buffer for 4 h. Rapid blot transfers were performed at 2.5A/25V for 7 min. […] P-tau and T-tau signals were first normalized to GAPDH from the same membranes, and then divided one by another to obtain the level of pS202 or pT231 relative to T-tau. Values are presented as mean±SEM of three or four independent experiments.
# [2] = test system: S202-Tau phosphorylation in SH-SY5Y-(P301L) cells; test: Western blot of pS202-tau/T-tau in SH-SY5Y-(P301L) cells, roscovitine and/or LiCl, with coefficient of drug interaction; type: cell-based; conditions: 6 h; for tau phosphorylation (pS202-tau), individual treatment: single agent
# Experimental: as §1, §2
# For cell cultures and immunoblotting data the two-tailed unpaired t-test (Graphpad Prism) was used. Coefficients of drug interaction (CDI) were calculated as follows: CDI = AB/(A × B). According to the ratio pS202 tau/T-tau of each group, AB is the ratio of the combination groups to control group; A or B is the ratio of the single agent group to control group. […]
# epileptic rats = test system: epileptic rats; design: method as in PMID 28595035; conditions: cited from earlier work
# mice following TBI = conditions: cited from earlier work
Structure (SMILES),"reduction of tau phosphorylation by inhibitors to secondary kinase targets ([1]; 25, 50, and 100 μM)","Inhibition of tau phosphorylation at Thr231 and Ser202 ([1]; 25, 50, and 100 μM)",also measured
N#CC(=C(/N)Sc1ccccc1N)/C(C#N)=C(/N)Sc1ccccc1N [UO126],none of the inhibitors to secondary kinase targets reduced tau phosphorylation,–,–
CCC(CO)Nc1nc(N(C)Cc2ccccc2)c2ncn(C(C)C)c2n1 (centres unmarked) [N6-methyl-roscovitine],–,not,–
"CC(C)(C)c1cnc(CSc2cnc(NC(=O)C3CCNCC3)s2)o1 [SNS-032, N-[5-[[[5-(1,1-dimethylethyl)-2-oxazolyl]methyl]thio]-2-thiazolyl]-4-piperidinecarboxamide]",–,evident,–
O=C1NC(Nc2ccccc2)=N/C1=C\c1ccc2c(c1)OCO2 [Leucettine 41],none of the inhibitors to secondary kinase targets reduced tau phosphorylation,–,–
"[Cl-].[Li+] [LiCl, lithium chloride]",–,–,"dose-response of pS202-tau inhibition, LiCl alone ([2]; LiCl alone): no dose-response relationship; tau phosphorylation (pS202-tau), individual treatment [2]: slightly down-regulated; epilepsy-induced axonal impairment (epileptic rats): reversed axonal impairment"
CC[C@@H](CO)Nc1nc(N(C)Cc2ccc(-c3ccccn3)cc2)c2ncn(C(C)C)c2n1 [N6-methyl-CR8],–,not,cause of decreases in P-tau at the high dose ([1]; 100 μM): likely the result of drug-associated cell toxicity
"CC[C@H](CO)Nc1nc(NCc2ccccc2)c2ncn(C(C)C)c2n1 [Roscovitine, (R)-roscovitine]",–,evident,"inhibition of Ser202 phosphorylation, ros alone ([2]; ros alone): moderate and dose-dependent inhibition; tau phosphorylation (pS202-tau), individual treatment [2]: slightly down-regulated; epilepsy-induced axonal impairment (epileptic rats): reversed axonal impairment; cognitive deficits, spatial learning and memory after TBI (mice following TBI): attenuated cognitive deficits and improved spatial learning and memory; inhibition of Thr231 and Ser202 phosphorylation ([1]; range of ros concentrations): dose-dependent inhibition"
CCN1/C(=C/C(C)=O)Sc2ccc(OC)cc21 [TG003],none of the inhibitors to secondary kinase targets reduced tau phosphorylation,–,–
O=C(NC1CCNCC1)c1[nH]ncc1NC(=O)c1c(Cl)cccc1Cl [AT7519],–,evident,–
COc1ccc2c(c1)[nH]c1c(C)nccc12 [harmine],none of the inhibitors to secondary kinase targets reduced tau phosphorylation,–,–
CC[C@H](CO)Nc1nc(NCc2ccc(-c3ccccn3)cc2)c2ncn(C(C)C)c2n1 [CR8],–,evident,–
NC(=O)c1ccc(-c2nc(-c3ccc4c(c3)OCCO4)c(-c3ccccn3)[nH]2)cc1 [D4476],none of the inhibitors to secondary kinase targets reduced tau phosphorylation,–,–
COc1cccc(-c2cc(=O)c3ccccc3o2)c1N [PD098059],none of the inhibitors to secondary kinase targets reduced tau phosphorylation,–,–
COc1cc(OC)c(C=C2C(O)=Nc3ccccc32)c(OC)c1 [IC261],–,–,"activity at site pSer202 ([1]; 25, 50, and 100 μM): active"
CCc1cnn2c(NCc3ccc[n+]([O-])c3)cc(N3CCCC[C@H]3CCO)nc12 [SCH727965],–,evident,–
